Assay [1] concerns the target T1, α4β2δ GABAAR (human α4, rat β2, rat δ with N-terminal FLAG) (Rattus norvegicus (beta2, delta); Homo sapiens (alpha4), UniProt P18506+P48169+P63138).
T1 construct: gene GABRA4; free full subunits transiently transfected (cDNA α:β:δ 1:1:2) in mouse Neuro-2a cells
The experiment in a line: whole-cell patch clamp in transfected N2a cells, agonist concentration response, Hill fit. The class given is cell-based.

Assay [2] deals with T2, α4β2δ GABAAR (human α4, rat β2, rat δ with N-terminal FLAG) (Rattus norvegicus (beta2, delta); Homo sapiens (alpha4), UniProt P18506+P48169+P63138, P18506:T285Y).
T2 construct: gene GABRA4; free full subunits transiently transfected (cDNA α:β:δ 1:1:2) in mouse Neuro-2a cells
T2 sequence (P48169 36-554): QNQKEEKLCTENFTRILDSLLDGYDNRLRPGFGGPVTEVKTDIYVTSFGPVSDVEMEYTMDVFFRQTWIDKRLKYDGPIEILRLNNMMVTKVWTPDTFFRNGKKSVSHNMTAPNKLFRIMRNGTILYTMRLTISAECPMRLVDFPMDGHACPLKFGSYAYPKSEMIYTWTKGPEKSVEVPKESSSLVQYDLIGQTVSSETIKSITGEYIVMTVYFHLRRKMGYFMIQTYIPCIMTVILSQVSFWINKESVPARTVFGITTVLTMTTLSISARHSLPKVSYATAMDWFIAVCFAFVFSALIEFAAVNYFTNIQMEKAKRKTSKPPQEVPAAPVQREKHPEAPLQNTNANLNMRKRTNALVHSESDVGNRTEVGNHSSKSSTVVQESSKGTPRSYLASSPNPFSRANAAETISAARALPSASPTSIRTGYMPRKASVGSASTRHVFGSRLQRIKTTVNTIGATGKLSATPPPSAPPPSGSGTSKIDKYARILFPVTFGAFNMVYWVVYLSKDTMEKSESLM
T2 sequence (P63138 26-474): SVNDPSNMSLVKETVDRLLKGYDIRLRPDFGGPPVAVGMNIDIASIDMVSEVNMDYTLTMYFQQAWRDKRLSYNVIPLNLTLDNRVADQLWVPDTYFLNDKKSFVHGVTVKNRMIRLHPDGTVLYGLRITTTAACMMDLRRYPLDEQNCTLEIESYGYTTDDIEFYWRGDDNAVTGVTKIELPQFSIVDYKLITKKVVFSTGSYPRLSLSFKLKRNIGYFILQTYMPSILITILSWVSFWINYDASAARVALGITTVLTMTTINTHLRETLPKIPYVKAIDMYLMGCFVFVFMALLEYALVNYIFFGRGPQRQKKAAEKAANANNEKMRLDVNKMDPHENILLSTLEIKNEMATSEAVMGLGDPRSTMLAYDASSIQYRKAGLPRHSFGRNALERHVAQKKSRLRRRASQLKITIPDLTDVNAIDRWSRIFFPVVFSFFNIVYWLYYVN
Described as above. The class given is cell-based.

T1 sequence (P63138 26-474): as above
T1 sequence (P48169 36-554): as the sequence (P48169 36-554) above
T1 sequence (P18506 25-449): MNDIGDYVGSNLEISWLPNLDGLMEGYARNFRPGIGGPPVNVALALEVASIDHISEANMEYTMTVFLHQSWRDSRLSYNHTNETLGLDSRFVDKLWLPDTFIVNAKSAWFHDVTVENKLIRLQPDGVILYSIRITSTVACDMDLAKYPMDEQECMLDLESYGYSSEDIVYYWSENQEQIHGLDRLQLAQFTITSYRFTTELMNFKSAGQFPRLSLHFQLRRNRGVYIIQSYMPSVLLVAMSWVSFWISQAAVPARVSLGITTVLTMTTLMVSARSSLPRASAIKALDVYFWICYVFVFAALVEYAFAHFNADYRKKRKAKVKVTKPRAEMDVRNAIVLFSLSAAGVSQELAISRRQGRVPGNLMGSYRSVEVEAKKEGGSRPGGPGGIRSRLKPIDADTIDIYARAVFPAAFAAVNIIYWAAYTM

By EC50 is commonly meant the midpoint of the concentration-response curve. Lower therefore signals higher potency in that assay. Take `Oc1noc2c1CCNC2` [THIP, 4,5,6,7-tetrahydroisoxazolo[5,4-c]pyridin-3-ol]: the figures for the half-maximal effective concentration (EC50) in assay [1] and in assay [2] were 38.7 µM and 16.7 µM, respectively.

Source of the values: publication PMC8636460, “Pharmacological and Biophysical Characteristics of Picrotoxin-Resistant, δSubunit-Containing GABAA Receptors” (Frontiers in Synaptic Neuroscience, 2021).
